Measured values reported in patent US20230151025A1, “SUBSTITUTED THIAZOLOPYRIDINES, SALTS THEREOF AND THEIR USE AS HERBICIDALLY ACTIVE SUBSTANCES” (Bayer Aktiengesellschaft, priority 2020, published 2023).

How the values were obtained:
Assay type in all cases: in vivo
[1] = test system: Amaranthus retroflexus (AMARE); experiment: Herbicidal post-emergence action (B), 1280 g/ha; details: rated visually after about 3 weeks vs untreated controls
Outline: (§1)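 Percent activity is a visual score taken about 3 weeks after treatment, relative to untreated plants, where 100% means the plants died and 0% means no difference from controls. Plants were sprayed on green parts at the one-leaf stage with an aqueous suspension or emulsion containing 0.5% additive at 600 L/ha.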

Poa annua (POAAN) [2] = experiment: Herbicidal post-emergence action (B), 1280 g/ha; details: rated visually after about 3 weeks vs untreated controls
Outline: as §1

[3] = test system: Alopecurus myosuroides (ALOMY); experiment: Herbicidal post-emergence action (B), 1280 g/ha; details: rated visually after about 3 weeks vs untreated controls
Outline: as §1

[4] = test system: Kochia scoparia (KCHSC; Bassia scoparia); experiment: Herbicidal post-emergence action (B), 1280 g/ha
Outline: as §1

[5] = test system: Echinochloa crus-galli (ECHCG); experiment: Herbicidal post-emergence action (B), 1280 g/ha; details: rated visually after about 3 weeks vs untreated controls
Outline: as §1

[6] = test system: Matricaria inodora (MATIN); experiment: Herbicidal post-emergence action (B), 1280 g/ha; details: rated visually after about 3 weeks vs untreated controls
Outline: as §1

Stellaria media (STEME) [7] = experiment: Herbicidal post-emergence action (B), 1280 g/ha
Outline: as §1

[8] = test system: Abutilon theophrasti (ABUTH); experiment: Herbicidal post-emergence action (B), 1280 g/ha; details: rated visually after about 3 weeks vs untreated controls
Outline: as §1

[9] = test system: Digitaria sanguinalis (DIGSA); experiment: Herbicidal post-emergence action (B), 1280 g/ha; details: rated visually after about 3 weeks vs untreated controls
Outline: as §1

Veronica persica (VERPE) [10] = experiment: Herbicidal post-emergence action (B), 1280 g/ha
Outline: as §1

Setaria viridis (SETVI) [11] = experiment: Herbicidal post-emergence action (B), 1280 g/ha; details: rated visually after about 3 weeks vs untreated controls
Outline: as §1

[12] = test system: Amaranthus retroflexus (AMARE); experiment: Herbicidal pre-emergence action (C), 320 g/ha; details: ca. 3 weeks
Outline: (§2)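 Seeds sown in sandy loam; WP or EC formulations sprayed on covering soil pre-emergence at 320 g/ha in 600 l water/ha with 0.5% additive. Greenhouse culture; damage scored visually after ca. 3 weeks versus untreated controls (0% = as control, 100% = plants dead).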

[13] = test system: Alopecurus myosuroides (ALOMY); experiment: Herbicidal pre-emergence action (C), 320 g/ha; details: ca. 3 weeks
Outline: as §2

Lolium rigidum (LOLRI) [14] = experiment: Herbicidal pre-emergence action (C), 320 g/ha; details: ca. 3 weeks
Outline: as §2

[15] = test system: Echinochloa crus-galli (ECHCG); experiment: Herbicidal pre-emergence action (C), 320 g/ha; details: ca. 3 weeks
Outline: as §2

Setaria viridis (SETVI) [16] = experiment: Herbicidal pre-emergence action (C), 320 g/ha; details: ca. 3 weeks
Outline: as §2

[17] = test system: Digitaria sanguinalis (DIGSA); experiment: Herbicidal pre-emergence action (C), 320 g/ha; details: ca. 3 weeks
Description: Seeds of mono- and dicotyledonous weed plants and crop plants were sown, in plastic or organic planting pots, in sandy loam and covered with soil. The compounds according to the invention, formulated in the form of wettable powders (WP) or as emulsifiable concentrates (EC), were applied to the surface of the covering soil as aqueous suspension or emulsion, with the addition of 0.5% of an additive, at an application rate of 600 l of water/ha (converted).
Following treatment, the pots were placed in a greenhouse and kept under optimum growth conditions for the test plants. The visual grading of the damage to the test plants was carried out after ca. 3 weeks in comparison to untreated controls (herbicidal effect in percent (%): 100% effect=plants have died off, 0% effect=as control plants).
Tables C1 to C13 below show the effects of selected compounds of the general formula (I) according to table 1 on various harmful plants and an application rate corresponding to 320 g/ha obtained by the experimental procedure mentioned above.

[18] = test system: Amaranthus retroflexus (AMARE); experiment: Herbicidal pre-emergence action (A), 1280 g/ha; details: visual grading after ca. 3 weeks vs untreated controls
Outline: (§3)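 Pre-emergence soil-surface spray, 600 l/ha water, 0.5% additive, WP or EC formulation. Sandy loam, double sowing per pot, greenhouse under optimum growth. Visual % damage at ~3 wk vs untreated; 100% = plants died off.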

Poa annua (POAAN) [19] = experiment: Herbicidal pre-emergence action (A), 1280 g/ha; details: visual grading after ca. 3 weeks vs untreated controls, 100% = plants have died off, 0% = as control plants
Outline: as §3

[20] = test system: Alopecurus myosuroides (ALOMY); experiment: Herbicidal pre-emergence action (A), 1280 g/ha; details: visual grading after ca. 3 weeks vs untreated controls, 100% = plants have died off, 0% = as control plants
Outline: as §3

Lolium rigidum (LOLRI) [21] = experiment: Herbicidal pre-emergence action (A), 1280 g/ha; details: visual grading after ca. 3 weeks vs untreated controls, 100% = plants have died off, 0% = as control plants
Outline: as §3

[22] = test system: Kochia scoparia (KCHSC; Bassia scoparia); experiment: Herbicidal pre-emergence action (A), 1280 g/ha; details: visual grading after ca. 3 weeks vs untreated controls
Outline: as §3

[23] = test system: Echinochloa crus-galli (ECHCG); experiment: Herbicidal pre-emergence action (A), 1280 g/ha; details: visual grading after ca. 3 weeks vs untreated controls, 100% = plants have died off, 0% = as control plants
Outline: as §3

[24] = test system: Matricaria inodora (MATIN); experiment: Herbicidal pre-emergence action (A), 1280 g/ha; details: visual grading after ca. 3 weeks vs untreated controls
Outline: as §3

Stellaria media (STEME) [25] = experiment: Herbicidal pre-emergence action (A), 1280 g/ha; details: visual grading after ca. 3 weeks vs untreated controls
Outline: as §3

[26] = test system: Digitaria sanguinalis (DIGSA); experiment: Herbicidal pre-emergence action (A), 1280 g/ha; details: visual grading after ca. 3 weeks vs untreated controls, 100% = plants have died off, 0% = as control plants
Outline: as §3

Veronica persica (VERPE) [27] = experiment: Herbicidal pre-emergence action (A), 1280 g/ha; details: visual grading after ca. 3 weeks vs untreated controls
Outline: as §3

Setaria viridis (SETVI) [28] = experiment: Herbicidal pre-emergence action (A), 1280 g/ha; details: visual grading after ca. 3 weeks vs untreated controls
Outline: as §3

[29] = test system: Amaranthus retroflexus (AMARE); experiment: Herbicidal post-emergence action (D), 320 g/ha; details: ca. 3 weeks
Outline: (§4)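 Post-emergence greenhouse test. Sandy loam; spray at single-leaf stage (2–3 wk after sowing); WP or EC in water + 0.5% additive, 600 l/ha. Visual rating ~3 wk post-spray, % effect vs untreated (0 = control, 100 = dead).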

[30] = test system: Alopecurus myosuroides (ALOMY); experiment: Herbicidal post-emergence action (D), 320 g/ha; details: ca. 3 weeks
Outline: as §4

[31] = test system: Echinochloa crus-galli (ECHCG); experiment: Herbicidal post-emergence action (D), 320 g/ha; details: ca. 3 weeks
Outline: as §4

[32] = test system: Abutilon theophrasti (ABUTH); experiment: Herbicidal post-emergence action (D), 320 g/ha; details: ca. 3 weeks
Outline: as §4

[33] = test system: Matricaria inodora (MATIN); experiment: Herbicidal pre-emergence action (C), 320 g/ha; details: ca. 3 weeks
Outline: as §2

[34] = test system: Polygonum convolvulus (POLCO); experiment: Herbicidal pre-emergence action (C), 320 g/ha; details: ca. 3 weeks
Outline: as §2

[35] = test system: Abutilon theophrasti (ABUTH); experiment: Herbicidal pre-emergence action (C), 320 g/ha; details: ca. 3 weeks
Outline: as §2

Veronica persica (VERPE) [36] = experiment: Herbicidal pre-emergence action (C), 320 g/ha; details: ca. 3 weeks
Outline: as §2

[37] = test system: Digitaria sanguinalis (DIGSA); experiment: Herbicidal post-emergence action (D), 320 g/ha; details: ca. 3 weeks
Description: Seeds of mono- and dicotyledonous weed plants and crop plants were sown, in plastic or organic planting pots, in sandy loam, covered with soil and grown in a greenhouse under controlled growth conditions. 2 to 3 weeks after sowing, the test plants were sprayed in the single-leaf stage. The compounds according to the invention, formulated in form of wettable powders (WP) or as emulsifiable concentrates (EC), were sprayed onto the green plant parts as aqueous suspension or emulsion, with the addition of 0.5% of an additive, at an application rate of 600 l of water/ha (converted). The test plants were placed in the greenhouse for ca. 3 weeks under optimum growth conditions, and then the effect of the preparations was assessed visually in comparison with untreated controls (herbicidal effect in percent (%): 100% effect=plants have died off, 0% effect=as control plants).
Tables D1 to D13 below show the effects of selected compounds of the general formula (I) according to table 1 on various harmful plants and an application rate corresponding to 320 g/ha obtained by the experimental procedure mentioned above.

[38] = test system: Polygonum convolvulus (POLCO); experiment: Herbicidal post-emergence action (D), 320 g/ha; details: ca. 3 weeks
Outline: as §4

Viola tricolor (VIOTR) = experiment: Herbicidal post-emergence action (D), 320 g/ha; details: ca. 3 weeks
Outline: as §4

Veronica persica (VERPE) [39] = experiment: Herbicidal post-emergence action (D), 320 g/ha; details: ca. 3 weeks
Outline: as §4

Setaria viridis (SETVI) [40] = experiment: Herbicidal post-emergence action (D), 320 g/ha; details: ca. 3 weeks
Outline: as §4

In the case of `c1ccc(-c2ccc3scnc3n2)cc1` [Example I-010], the “herbicidal activity AMARE” value [1] is reported as 100%, the “herbicidal activity POAAN” value (Poa annua (POAAN) [2]) is reported as 100% and the “herbicidal activity ALOMY” value [3] is reported as 100%. The “herbicidal effect KCHSC” value [4] was 100%, the “herbicidal activity ECHCG” value [5] was 90% and the “herbicidal activity MATIN” value [6] was 100%. For the same compound, the “herbicidal effect STEME” value (Stellaria media (STEME) [7]) was 100%, the “herbicidal activity ABUTH” value [8] was 100% and the “herbicidal activity DIGSA” value [9] was 100%. The “herbicidal effect VERPE” value (Veronica persica (VERPE) [10]) was 100%, the “herbicidal activity SETVI” value (Setaria viridis (SETVI) [11]) was 100% and the “herbicidal effect AMARE” value [12] was 90%. The “herbicidal effect ALOMY” value [13] was 100%, the “herbicidal effect LOLRI” value (Lolium rigidum (LOLRI) [14]) was 100% and the “herbicidal effect ECHCG” value [15] was 100%. For the same compound, the “herbicidal effect SETVI” value (Setaria viridis (SETVI) [16]) was 100%, the “herbicidal effect DIGSA” value [17] was 100% and the “herbicidal effect AMARE” value [18] was 90%. For the same compound, the “POAAN, herbicidal effect in percent (%)” value (Poa annua (POAAN) [19]) was 100%, the “ALOMY, herbicidal effect in percent (%)” value [20] was 100% and the “LOLRI, herbicidal effect in percent (%)” value (Lolium rigidum (LOLRI) [21]) was 100%. For the same compound, the “herbicidal effect KCHSC” value [22] was 90%, the “ECHCG, herbicidal effect in percent (%)” value [23] was 100% and the “herbicidal effect MATIN” value [24] was 100%. For the same compound, the “herbicidal effect STEME” value (Stellaria media (STEME) [25]) was 100%, the “DIGSA, herbicidal effect in percent (%)” value [26] was 100% and the “herbicidal effect VERPE” value (Veronica persica (VERPE) [27]) was 90%. For the same compound, the “herbicidal effect SETVI” value (Setaria viridis (SETVI) [28]) was 100%, the “herbicidal effect AMARE” value [29] was 80% and the “herbicidal effect ALOMY” value [30] was 90%. For the same compound, the “herbicidal effect ECHCG” value [31] was 90% and the “herbicidal effect ABUTH” value [32] was 80%.

For `Cc1ccccc1-c1nc2ncsc2cc1C` [Example I-018], the “herbicidal effect AMARE” value [12] was 90%, the “herbicidal effect ALOMY” value [13] was 100% and the “herbicidal effect LOLRI” value (Lolium rigidum (LOLRI) [14]) was 100%. The “herbicidal effect ECHCG” value [15] was 100%, the “herbicidal effect MATIN” value [33] was 90% and the “herbicidal effect POLCO” value [34] was 90%. The “herbicidal effect ABUTH” value [35] was 80%, the “herbicidal effect VERPE” value (Veronica persica (VERPE) [36]) was 90% and the “herbicidal effect SETVI” value (Setaria viridis (SETVI) [16]) was 100%. For the same compound, the “herbicidal effect DIGSA” value [37] was 90%, the “herbicidal effect DIGSA” value [17] was 100% and the “herbicidal effect AMARE” value [29] was 90%. The “herbicidal effect ALOMY” value [30] was 90%, the “herbicidal effect POLCO” value [38] was 100% and the “herbicidal effect VIOTR” value (Viola tricolor (VIOTR)) was 90%. For the same compound, the “herbicidal effect VERPE” value (Veronica persica (VERPE) [39]) was 80% and the “herbicidal effect SETVI” value (Setaria viridis (SETVI) [40]) was 80%.
